Measured values: patent publication US20250304623A1, “PEPTIDES FOR INTRACELLULAR DELIVERY” (UNIVERSIDADE DE SANTIAGO DE COMPOSTELA, priority 2022, published 2025)

Tests used:
Hela cells = test: EGFP pDNA transfection, flow cytometry, HeLa; assay type: cell-based; settings: myristoleyl aldehyde
Experimental: (§1) For cytometry-based assays, the delivery of pDNA encoding for the expression of eGFP gene (GFP) in HeLa and A549 cells was performed. Amphiphilic molecule stock solutions in DMSO were diluted with DMEM and freshly mixed with pDNA stock solutions in DMEM prior to transfection experiments, to afford several complexes at different amphiphile concentration (2.5-10 μM) while maintaining a constant final pDNA concentration of 2 ng/μL. The mixture was shaken for 30 min at room temperature before the addition to the cells. The cell medium was aspirated, and cells were washed twice with PBS. Finally, 50 μL of the complex's solution were added to the cells and incubated for 4 h. After the incubation, the medium was replaced by 100 μL of fresh DMEM supplemented with 10% FBS. 72 hours after transfection the DMEM was removed, and cells were cultured for 5 min with 100 μL of trypsin. Then, 100 μL of PBS (supplemented with 2% FBS and 1% EDTA 0.5M) were added. Finally, the GFP fluorescent measurement was performed in a flow cytometer and the percentage of GFP positive (i.e., transfected cells) were quantified. Amphiphile transfection efficiency was compared to control, non-treated cells and all experiments were done in triplicate.
7.3(Leu-His) peptide with D-amino acids was synthesized. This peptide would be more resistant to the degradation by proteases. The inventors studied the delivery of EGFP pDNA using amphiphiles comprising either enantiomer (either 7.3(Leu-His) peptide with D-amino acids or with L-amino acids) and myristoleyl aldehyde to compare their transfecting activity in HeLa cells. Number of EGFP expressing cells was measured by flow cytometry.
Experiments in cultured cells at different confluence levels were performed to check the effect of this parameter on the activity of amphiphile 7.3(Leu-His) M. As described above, transfection experiments are usually performed on cells seeded the day before at a cell concentration of 60,000 cell/mL (100 μL/well). In the current example, transfection experiments with EGFP pDNA are performed in HeLa cells two and four times more concentrated (120,000 and 240,000 cells/mL, respectively). […] However, for this experiment more volume of complex amphiphile/pDNA was needed as the cell concentration was increased (50, 100 and 200 μL of complexes were used for 60,000, 120,000 and 240,000 cells/mL, respectively).
Several structural modifications were performed on the peptide 7.3(Leu-His). The delivery of EGFP pDNA in HeLa cells using amphiphiles comprising these peptides and myristoleyl aldehyde was tested. The modifications consisted of the modification in the order of the amino acids, the replacement of 1 to 3 K* residues for O* residues and the addition of 1 or 2 R residues on the N-terminus. […]

A549 cells = test: EGFP pDNA transfection, flow cytometry, A549; assay type: cell-based; settings: myristoleyl aldehyde, 5 μM
Experimental: FIG. 6 EGFP pDNA transfection efficacy with amphiphiles (myristoleyl aldehyde hydrophobic tails were used in all cases) comprising peptide 7.3(L-H) and other short peptides structurally-derived from 7.3(L-H), in A549, HeLa and HepG2 cell lines. 5 μM of amphiphile and 2 ng/μL pDNA per well were used in the transfection experiments. “LF”=Lipofectamine® 2000 commercial reagent.
as §1, with “72 hours after transfection the DMEM was removed, and cells were cultured for 5 min with 100 μL of trypsin. Then, 100 μL of PBS (supplemented with 2% FBS and 1% EDTA 0.5M) were added.” left out, “Amphiphile transfection efficiency was compared to control, non-treated cells and all experiments were done in triplicate.” left out

[1] = 5 μM, cell lines of FIG. 6 other than A549

Substance | EGFP pDNA transfection efficiency compared with amphiphile 7.3(Leu-His) M (Hela cells; [1]) | EGFP pDNA transfection efficiency compared with other amphiphiles (A549 cells) | EGFP pDNA transfection efficiency as % of V1-7.3(Leu-His) M or 7.3(Leu-His) M (Hela cells; [1]) | EGFP pDNA transfecting activity, D- versus L-amino acid peptide (Hela cells; HeLa, flow cytometry)
Ac-RHK*K*K*HR-NH2 (Ac-RHKKKHR-NH2; not fully specified (residues 3, 4, 5); printed as Ac-RHK*K*K*HR-NH2; also: linker on K* not given here) [V1-7.3(Leu-His)] | generally show the same transfection efficiency | about half | – | –
Ac-RK*HHK*K*R-NH2 (Ac-RKHHKKR-NH2; not fully specified (residues 2, 5, 6); printed as Ac-RK*HHK*K*R-NH2; also: linker on K* not given here) [V2-7.3(Leu-His)] | – | enhanced efficiency matching V1-7.3(Leu-His) M transfection efficiency | about 50% | –
Ac-RK*HRK*K*H-NH2 [7.3(Leu-His) peptide with D-amino acids] | – | – | – | both peptides perform equally efficiently
